Test results published in patent publication US20200407717A1, “METHODS OF MODULATING ANTISENSE ACTIVITY” (Ionis Pharmaceuticals, Inc., priority 2018, published 2020).
e = 2'-O-(2-methoxyethyl) (MOE); d = 2'-deoxy (DNA)

System: Drosha mRNA
Test: Antisense activity by RT-qPCR, Drosha, A431 cells
Format: cell-based, Human
Protocol: A431 cells were grown at 10,000 cells per well and pre-treated with a variety of growth factors to determine if the addition of exogenous growth factors affects antisense activity or uptake of modified antisense oligonucleotides in a cell. The growth factors used were EGF, insulin growth factor (IGF), transforming growth factor (TGF), […] (VEGF), hepatocyte growth factor (HGF), platelet growth factor (PGF) and fibroblasts growth factor (FGF). To test antisense activity, cells were treated for 4 hours with a growth factor or vehicle alone, and then treated with compound no. 25690 (complementary to Drosha), compound no. 395254 (complementary to Malat1), or vehicle alone. RNA was isolated from the cells and Drosha or Malat1 RNA levels were measured by RT-qPCR. Human primer probe set 13816 (forward sequence […], designated herein as SEQ ID NO: 3; reverse sequence […], designated herein as SEQ ID NO: 4; probe sequence […], designated herein as SEQ ID NO: 5) was used to measure Drosha mRNA levels and primer probe set RTS2736 (forward sequence […], designated herein as SEQ ID NO: 6; reverse sequence […], designated herein as SEQ ID NO: 7; probe sequence TGCCACATCGCCACCCCGT, designated herein as SEQ ID NO: 8) was used to measure Malat1 RNA levels. Drosha and Malat1 RNA levels were normalized to total RNA content, as measured by RIBOGREEN®. Results are presented in the tables below as normalized RNA levels, relative to untreated control cells.
A431 cells were treated with EGF or TGF at 200 ng/mL in the presence or absence of 1 μM of the EGFR tyrosine kinase inhibitor PD174265. The cells were then treated with compound no. 25690 or compound no. 395254 as in Example 8. Total RNA was isolated and analyzed by RT-qPCR, as in Example 8.
Following siRNA treatment, cells were treated with compound no. 25690 or compound no. 395254 in the presence or absence of EGF. 16 hours after treatment with a PS-ASO with or without EGF, cells were harvested, and RNA levels were analyzed via RT-qPCR as in Example 8.

## AGGAAGGAAGCTGGCGATCT (sugars from the 5' end e5 d10 e5, all phosphorothioate, methylation of C not given here) [compound 25690]
50000 nM, Control, Table 20
  Drosha mRNA (% Control): 28.2 % Control
50000 nM, EGF
  Drosha mRNA (% Control): 35.1 % Control
50000 nM, EGF+PD174265
  Drosha mRNA (% Control): 45.3 % Control
50000 nM, EGFR siRNA-1
  Drosha mRNA (% Control): 25.7 % Control
50000 nM, EGFR siRNA-2
  Drosha mRNA (% Control): 31.2 % Control
50000 nM, EGFR siRNA-2 + EGF
  Drosha mRNA (% Control): 31.3 % Control
50000 nM, EGFR siRNA-2, Table 26
  Drosha mRNA (% Control): 29.3 % Control
50000 nM, TGF
  Drosha mRNA (% Control): 17.2 % Control
50000 nM, TGF+PD174265
  Drosha mRNA (% Control): 35.2 % Control
100000 nM, Control
  Drosha mRNA (% Control): 39.2 % Control
100000 nM, Control Luciferase siRNA
  Drosha mRNA (% Control): 19.7 % Control
100000 nM, Control Luciferase siRNA, Table 26
  Drosha mRNA (% Control): 32.1 % Control
100000 nM, Control luciferase + EGF
  Drosha mRNA (% Control): 21.0 % Control
100000 nM, Control, Table 20
  Drosha mRNA (% Control): 25.2 % Control
100000 nM, EGF
  Drosha mRNA (% Control): 32.9 % Control
100000 nM, EGF+PD174265
  Drosha mRNA (% Control): 35.2 % Control
100000 nM, EGFR siRNA-1
  Drosha mRNA (% Control): 24.1 % Control
100000 nM, EGFR siRNA-2
  Drosha mRNA (% Control): 28.4 % Control
100000 nM, EGFR siRNA-2 + EGF
  Drosha mRNA (% Control): 30.4 % Control
100000 nM, EGFR siRNA-2, Table 26
  Drosha mRNA (% Control): 31.2 % Control
100000 nM, TGF
  Drosha mRNA (% Control): 15.2 % Control
100000 nM, TGF+PD174265
  Drosha mRNA (% Control): 30.2 % Control
200000 nM, Control
  Drosha mRNA (% Control): 30.2 % Control
200000 nM, Control Luciferase siRNA
  Drosha mRNA (% Control): 14.9 % Control
200000 nM, Control Luciferase siRNA, Table 26
  Drosha mRNA (% Control): 25.2 % Control
200000 nM, Control luciferase + EGF
  Drosha mRNA (% Control): 21.4 % Control
200000 nM, Control, Table 20
  Drosha mRNA (% Control): 21.2 % Control
200000 nM, EGF
  Drosha mRNA (% Control): 25.1 % Control
200000 nM, EGF+PD174265
  Drosha mRNA (% Control): 33.2 % Control
200000 nM, EGFR siRNA-1
  Drosha mRNA (% Control): 18.5 % Control
200000 nM, EGFR siRNA-2
  Drosha mRNA (% Control): 20.8 % Control
200000 nM, EGFR siRNA-2 + EGF
  Drosha mRNA (% Control): 25.1 % Control
200000 nM, EGFR siRNA-2, Table 26
  Drosha mRNA (% Control): 26.1 % Control
200000 nM, TGF
  Drosha mRNA (% Control): 15.2 % Control
200000 nM, TGF+PD174265
  Drosha mRNA (% Control): 27.2 % Control
Control (no growth factor), Table 15
  IC50: 1470 ± 50 nM
Control Luciferase siRNA, Table 24
  IC50: 1310 ± 40 nM
Control Luciferase siRNA, Table 26
  IC50: 1500 ± 50 nM
Control luciferase + EGF, Table 26
  IC50: 630 ± 40 nM
Control, Table 18
  IC50: 1620 ± 90 nM
Control, Table 20
  IC50: 1390 ± 60 nM
EGF 200 ng/mL + 1 μM PD174265, Table 18
  IC50: 1500 ± 50 nM
EGF 200 ng/mL, Table 18
  IC50: 580 ± 70 nM
EGF pre-treatment 4 hours, Table 15
  IC50: 600 ± 80 nM
EGFR siRNA-1, Table 24
  IC50: 2110 ± 100 nM
EGFR siRNA-2 + EGF, Table 26
  IC50: 2330 ± 110 nM
EGFR siRNA-2, Table 24
  IC50: 2790 ± 70 nM
EGFR siRNA-2, Table 26
  IC50: 2730 ± 100 nM
TGF 200 ng/mL + 1 μM PD174265, Table 20
  IC50: 1490 ± 40 nM
TGF 200 ng/mL, Table 20
  IC50: 500 ± 40 nM
TGF pre-treatment 4 hours, Table 15
  IC50: 590 ± 70 nM
Cells treated with IGF, FGF, HGF, VEGF or PGF relative to PS-ASO alone (data not shown)
  half maximal inhibitory concentration, Drosha: unchanged
